Each structure is given as a SMILES string. Read-outs that look alike come from different tables or passages of the source.

These results are taken from EP0171702A1, “Benzoxazinone derivatives, preparation and use” (BEECHAM GROUP PLC, priority 1984, dated 1986).

In one assay the test system is conscious cats. Description: Inotropic activity in conscious cats. The class given is in vivo. The conditions noted are these: for Peak dp/dt: maximal percentage change in dp/dt of left ventricular pressure over initial baseline level; for Peak HR: maximal percentage change in heart rate over initial baseline level; for dp/dt: HR: ratio of peak dp/dt change to peak HR change. As to the method: Male 3-4.5 kg cats, bred in-house are implanted with a polythene cannula in the left ventricle which is exte- riorised at the back of the neck by means of a small teflon valve. Recordings are made via a pressure transducer attached by means of a length of polyethylene tubing to the cat neck valve.
During an initial 1 hour stabilisation period, steady baseline recordings are obtained. The test compound contained in a gelatine capsule, is then administered orally. Recording is normally carried out for 6 hours post dosing.
The maximal percentage change in dp/dt over initial baseline level is used as the index of inotropic activity. Chronotropic activity is taken as the maximal percentage change in HR over the initial baseline level.

Assay [1] deals with electrically paced left atrium. Nature of the assay: Isolated rat atria: tension of the electrically paced left atrium. The conditions noted are these: Rattus norvegicus, Krebs solution at 32°C; for Emax: maximal effect relative to isoprenaline maximum (isoprenaline = 1), read-out: Tension Intrinsic Activity; for EC50: molar concentration producing 50% of the compound's own maximum response. As to the method:
(§1) Sprague-Dawley male rats (300-400g) are killed and the right and left atria dissected out independently and mounted on a combined tissue holder/electrode. […] The rate of the spontaneously beating right atrium (via an isometric transducer and a ratemeter) and the tension of the electrically paced left atrium (via an isometric transducer) are recorded on a M19 chart recorder.
(§2) After an initial stabilization period, the tissues are exposed to a maximal concentration of isoprenaline (10-^7M). The tissues are then washed several times until rate and tension return to baseline level. A dose-response curve to the test compound is then carried out.
(§3) Responses to each concentration of test compound are expressed as a percentage of the maximal responses to isoprenaline. Results are given in the form of (a) intrinsic activity (maximal effect of test compound with respect to isoprenaline maximum, i.e. isoprenaline intrinsic activity = 1) and (b) EC50 (the molar concentration at which the test compound produces 50% of its own maximum response).

Assay [2] relates to spontaneously beating right atrium. Description: Isolated rat atria: rate of the spontaneously beating right atrium. The note with it: Rattus norvegicus, Krebs solution at 32°C; for Emax: maximal effect relative to isoprenaline maximum (isoprenaline = 1), read-out: Rate Intrinsic Activity; for EC50: molar concentration producing 50% of the compound's own maximum response. As for the experimental part: as §1, §2, §3

Another assay deals with Female CFLP mice. Nature of the assay: Hypoglycaemic activity (subcutaneous glucose load, blood glucose curve). The assay is classed as in vivo. The note with it: glucose 1 g/kg subcutaneously, 2 hour period, compared with control mice given water. As to the method:
Female CFLP mice, weighing approximately 25 g, were fasted for 24 hours prior to the study. The compounds under study were administered orally as an aqueous solution to each of 6 mice. 30 minutes later a blood sample (20 ul) was obtained from the tail for the analysis of blood glucose. Immediately after taking this blood sample, glucose (1 g/kg body weight) was administered subcutaneously to each mouse. 6 mice were given water as a control. Blood samples were then obtained from each mouse at 30 minute intervals for 120 minutes.
Compounds that produced a significant (p<0.05) reduction of blood glucose, compared with control mice qiven water, at any time interval were considered active. The area under the blood glucose curve over the 2 hour period after the administration of the glucose was calculated for each compound and compared with the value for control animals.

In another assay the test system is Male Sprague-Dawley rats. Nature of the assay: Effect on energy expenditure of rats. The conditions noted are these: Rattus norvegicus, po, percentage of rate of rats dosed with water; for response vs control in vivo at 4 mg/kg: 4.0 mg/kg p.o.; for response vs control in vivo at 7.5 mg/kg: 7.5 mg/kg p.o.; for response vs control in vivo at 7.8 mg/kg: 7.8 mg/kg p.o.; for response vs control in vivo at 7.1 mg/kg: 7.1 mg/kg p.o.; for response vs control in vivo at 4.1 mg/kg: 4.1 mg/kg p.o.; for response vs control in vivo at 7.2 mg/kg: 7.2 mg/kg p.o. The assay is classed as in vivo. As to the method:
Water was provided ad lib at all times. The compounds were administered orally in water to 3 or 4 rats. A further 4 rats were dosed orally with water. The rats were placed in boxes through which air was drawn and the oxygen content of the air leaving the boxes was measured. The energy expenditure of the rats was calculated for 3 hours and for 21 hours after dosing from the volume of air leaving the boxes and its oxygen content, following the principles described by J.B. de V. Weir, J. Physiol. (London) 109, 1-9 (1949). The results are expressed as a percentage of the rate of energy expenditure of the rats dosed with water.

Setting [3] is: 3 h, 0-3h after dosing, read-out: Mean Energy Expenditure 0-3h.
Setting [4] is: 21 h, 0-21h after dosing, read-out: Mean Energy Expenditure 0-21h.

Broadly, the EC50 is the midpoint of the concentration-response curve. A high value points to a need for much substance. In the case of `CC(COc1ccc2c(c1)OCC(=O)N2)NCC(O)COc1ccc(O)cc1` (stereo not shown) [Example 3, 7-[2-[3-(4-Hydroxyphenoxy)-2-hydroxypropylamino]-2-methylethoxy]-2H-1,4-benzoxazin-3-(4H)-one], in the assay on conscious cats (0.2 mg/kg p.o.), the Peak dp/dt amounted to 23% and the “Peak HR” value stood at 0%. Moreover, in the assay on conscious cats (1 mg/kg p.o.), the Peak dp/dt is on record as 95%, the “Peak HR” value is given as 13% and the “dp/dt: HR” value turned out to be 7.3. Also, in assay [1], the Emax turned out to be 52% and the EC50 was 21 nM. Besides, in assay [2], the Emax turned out to be 72% and the EC50 stood at 5.5 nM. The “% Reduction in area under blood glucose curve” value (“% Reduction in area” for short) in the assay with Female CFLP mice (2.5 μmol/kg orally) was determined as 3%. Further, the response vs control in vivo at 4 mg/kg in the assay on Male Sprague-Dawley rats (setting [3]) was 108%. In addition, in the assay on Male Sprague-Dawley rats (setting [4]), the response vs control in vivo at 4 mg/kg was found to be 105%.

As for `CC(COc1ccc2c(c1)NC(=O)CO2)NCC(O)c1cccc(Cl)c1` (stereo not shown) [Example 6, 6-[2-[2-(3-Chlorophenyl)-2-hydroxyethylamino]-2-methylethoxy]-2H-1,4-benzoxazin-3-(4H)-one], the Emax in assay [1] was 7%; in assay [2] it was 66%. Also, the concentration giving a half-maximal response (EC50) in assay [1] was 300 nM; in assay [2] it was 25 nM. The “% Reduction in area” value in the assay with Female CFLP mice (10 μmol/kg orally) is 29%. Further, the response vs control in vivo at 7.5 mg/kg in the assay on Male Sprague-Dawley rats (setting [3]) turned out to be 125%; in the assay on Male Sprague-Dawley rats (setting [4]), 105%.

Take `CC(COc1ccc2c(c1)NC(=O)CO2)NCC(O)COc1ccc(O)cc1` (stereo not shown) [Example 4, 6-[2-[3-(4-Hydroxyphenoxy)-2-hydroxypropylamino]-2-methylethoxy]-2H-1,4-benzoxazin-3-(4H)-one]: in the assay on conscious cats (1 mg/kg p.o.), the Peak dp/dt came out at 50%, the “Peak HR” value is on record as 36% and the “dp/dt: HR” value is 1.4. In assay [1], the Emax is 40% and a half-maximal effect (EC50) was put at 50 nM. Further, in assay [2], the Emax was 89% and the EC50 is 14 nM. The response vs control in vivo at 7.8 mg/kg in the assay on Male Sprague-Dawley rats (setting [3]) was determined as 128%. For the same compound, in the assay on Male Sprague-Dawley rats (setting [4]), the response vs control in vivo at 7.8 mg/kg is 119%.

Take `CC(Cc1ccc2c(c1)NC(=O)CO2)NCC(O)COc1ccccc1` (stereo not shown) [Example 11, 6-[2-[3-Phenoxy-2-hydroxypropylamino]-2-methylethyl]-2H-1,4-benzoxazin-3-(4H)-one]: the Emax is 11% in assay [1] and 32% in assay [2]. The EC50 in assay [1] stood at 100 nM; in assay [2], 53 nM. In addition, the response vs control in vivo at 7.1 mg/kg was 119% with Male Sprague-Dawley rats (setting [3]) and 108% in the assay on Male Sprague-Dawley rats (setting [4]).

In the case of `CC(COc1ccc2c(c1)OCC(=O)N2)NCC(O)c1cccc(Cl)c1` (stereo not shown) [Example 2, 7-[2-[2-(3-Chlorophenyl)-2-hydroxyethylamino]-2-methyl-ethoxy]-2H-1,4-benzoxazin-3-(4H)-one], the Emax was 18% in assay [1] and 44% in assay [2]. The EC50 in assay [1] was 85 nM; in assay [2], 55 nM. Also, the “% Reduction in area” value in the assay on Female CFLP mice (2.5 μmol/kg orally) is 22%. Also, the response vs control in vivo at 7.5 mg/kg turned out to be 128% in the assay on Male Sprague-Dawley rats (setting [3]) and 110% with Male Sprague-Dawley rats (setting [4]).

With `CC(COc1ccc2c(c1)NC(=O)CO2)NCC(O)c1ccc(Cl)c(Cl)c1` (stereo not shown) [Example 7, 6-[2-[2-(3,4-Dichlorophenyl)-2-hydroxyethylamino]-2-methylethoxy]-2H-1,4-benzoxazin-3-(4H)-one], the Emax came to 14% in assay [1] and 50% in assay [2]. Further, the EC50 in assay [1] is 45 nM; in assay [2], 36 nM. Besides, the “% Reduction in area” value with Female CFLP mice (25 μmol/kg orally) was determined as 11%. In addition, the response vs control in vivo at 4.1 mg/kg in the assay with Male Sprague-Dawley rats (setting [3]) came out at 149%; in the assay with Male Sprague-Dawley rats (setting [4]) it was 107%.

With `CC(COc1ccc2c(c1)NC(=O)CO2)NCC(O)c1ccc(O)cc1` (stereo not shown) [Example 15, 6-[2-[2-(4-Hydroxyphenyl)-2-hydroxyethylamino]-2-methylethoxy]-2H-1,4-benzoxazin-3-(4H)-one], the Emax in assay [1] was 88%; in assay [2] it was 98%. Also, the half-maximal effective concentration (EC50) came to 160 nM in assay [1] and 44 nM in assay [2]. Moreover, the response vs control in vivo at 7.2 mg/kg came out at 126% in the assay with Male Sprague-Dawley rats (setting [3]) and 103% in the assay on Male Sprague-Dawley rats (setting [4]).

Consider `CC(COc1ccc2c(c1)OCC(=O)N2)NCC(O)c1ccc(O)cc1` (stereo not shown) [Example 1, 7-[2-[2-(4-hydroxyphenyl)-2-hydroxyethylamino]-2-methylethoxy]-2H-1,4-benzoxazin-3-(4H)-one], for which, in the assay with conscious cats (1 mg/kg p.o.), the Peak dp/dt is on record as 230%, the “Peak HR” value was determined as 46% and the “dp/dt: HR” value came to 5.0. For the same compound, in assay [1], the Emax turned out to be 97% and the EC50 worked out at 21 nM. Moreover, in assay [2], the Emax was 97% and the 50% effective concentration (EC50) is 6.2 nM.
